In PubChem BioAssay (NCI):
Where “and” joins values, the source holds several entries; their conditions need not be identical. Identical values can stand only once.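 Each compound was tested at five concentrations against cells in 96-well plates for 48 hours. GI50 is the concentration that inhibits growth by half. TGI is the concentration that stops growth completely.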

Tested on: SK-OV-3 ovarian
Experiment: inhibition of tumour cell growth, NCI panel, 48 h

Compared with `CNC(=O)c1ccccc1Nc1nc(Nc2ccc(N3CCOCC3)cc2OC)ncc1Cl`, `CNC(=O)c1cc(Oc2ccc3nc(NC(=O)Nc4ccc(Cl)c(C(F)(F)F)c4)sc3c2)ccn1` is 3.5-fold higher in GI50: 0.543 µM for the first, 1.89 µM for the second.

First: CC1=C(C(=O)Nc2ccc(F)c(Cl)c2)C(c2ccc(Cl)cc2)NC(=O)N1 (stereo not drawn)
Second: Oc1ccc(Cl)cc1-c1cc(-c2ccccc2Cl)[nH]n1
The GI50 of the first is lower: 81.8 µM for the first, greater than 100 µM for the second.

Going from `COc1ccc(C2=CSc3cc(Cl)c(C)cc3S(=O)(=O)N2C(C)=O)cc1` to `CC(=O)[O][Hg][c]1c(N)c(C)cc(C)c1F`, the GI50 falls from 60.6 µM to 4.36 µM (14-fold).

Going from `CNC(=O)c1ccccc1Nc1nc(Nc2ccc(N3CCOCC3)cc2OC)ncc1Cl` to `COc1ccccc1NC(=O)CC(=O)n1nc(C)c(N=Nc2ccccc2C(=O)O)c1C`, the TGI rises from 3.7 µM to greater than 100 µM.

`O=C(N/C(=C\c1cc(Cl)ccc1Cl)c1nc2[nH]c(=S)[nH]c(=O)c2[nH]1)c1ccccc1` and `Oc1ccc(Cl)cc1-c1cc(-c2ccccc2Cl)[nH]n1` cannot be ordered by TGI: greater than 100 µM for the first, greater than 100 µM for the second.

`CN(CC(=O)O)S(=O)(=O)c1ccc2ccccc2c1` and `O=C(O)C(Cc1ccccc1)N1C(=O)N/C(=C\c2ccc(F)cc2)C1=O` (stereo not drawn) cannot be ordered by TGI: greater than 100 µM for the first, greater than 100 µM for the second.

`O=[S@@]1Nc2ccc(Br)cc2S1` and `COc1ccc2c(c1)C1(C=N2)CCN(C(C)=O)CC1` cannot be ordered by TGI: greater than 100 µM for the first, greater than 100 µM for the second.

First: CCOC(=O)C1=C(C)CC2C(=O)OC(=O)C2C1(C)C (stereo not drawn)
Second: CC(=O)[O][Hg][c]1c(N)c(C)cc(C)c1F
The TGI of the first is higher: greater than 100 µM for the first, 15.5 µM for the second.

Going from `CC1=C(C(=O)Nc2ccc(F)c(Cl)c2)C(c2ccc(Cl)cc2)NC(=O)N1` (stereo not drawn) to `CNC(=O)c1cc(Oc2ccc3nc(NC(=O)Nc4ccc(Cl)c(C(F)(F)F)c4)sc3c2)ccn1`, the TGI falls from greater than 100 µM to 4.21 µM.

`CCOC(=O)C(Sc1ccccc1)c1c(OC)cc(=O)oc1/C=[N+](/[O-])c1ccc(N(C)C)cc1` (stereo not drawn) and `COc1ccc2nc3cc(Cl)ccc3c(Sc3ccccc3[N+](=O)[O-])c2c1` cannot be ordered by TGI: greater than 100 µM for the first, greater than 100 µM for the second.

`COc1ccc(C2=CSc3cc(Cl)c(C)cc3S(=O)(=O)N2C(C)=O)cc1` and `COc1cccc(NC(=O)CC(=O)n2nc(C)c(N=Nc3ccccc3)c2C)c1` cannot be ordered by TGI: greater than 100 µM for the first, greater than 100 µM for the second.

`CC(=O)OC1COC(n2c(=S)n(-c3ccc(C)cc3)c(=O)c3ccccc32)C(OC(C)=O)C1OC(C)=O` (stereo not drawn) and `c1cc2c(cc1NC1=NCCO1)CCC2` cannot be ordered by TGI: greater than 100 µM for the first, greater than 10 µM for the second.

Tested on: U251 CNS
Experiment: inhibition of tumour cell growth, NCI panel, 48 h

Going from `NC(CSC(c1ccccc1)(c1ccccc1)c1ccc2c(c1)OCO2)C(=O)O` (stereo not drawn) to `O=C(NCCNc1nccc(-c2c(-c3cccc(O)c3)nc3sccn23)n1)c1ccccc1O`, the GI50 rises from 0.405 µM to 4.9 µM (12-fold).

Going from `CCCCCCCC(=O)SCC/C=C/[C@@H]1CC(=O)NCc2cccc(n2)C2=N[C@@](C)(CS2)C(=O)N[C@@H](C(C)C)C(=O)N1` to `C[C@@H](CS(C)(=O)=O)Nc1ncc2cc(Oc3ccc(F)cc3F)c(=O)n(C)c2n1`, the GI50 rises from 0.889 µM to greater than 25 µM.

Going from `COc1cc2c(c(OC)c1O)C(=O)C(OC)C(c1ccc(O)c(O)c1)O2` (stereo not drawn) to `CNC(=O)c1ccccc1Nc1nc(Nc2ccc(N3CCOCC3)cc2OC)ncc1Cl`, the GI50 rises from 0.418 µM to 1.94 µM (4.6-fold).

`Cn1ccnc1C(=O)/C=C/c1ccc(CC(=O)Nc2ccc(Br)cc2)cc1` gave a GI50 of 1.97 µM.

`NC(CSC(c1ccccc1)(c1ccccc1)c1ccc2c(c1)OCO2)C(=O)O` (stereo not drawn) and `Nc1ccc(C(=O)N/C(=C\c2ccc3c(c2)OCO3)c2nc3[nH]c(=S)[nH]c(=O)c3[nH]2)cc1` cannot be ordered by TGI: greater than 74.5 µM for the first, greater than 100 µM for the second.

`C=CCc1cc(OC)c2c(c1)C(O)CC(c1ccc(OC)c(OC)c1)O2` (stereo not drawn) and `COc1cc2c(c(OC)c1O)C(=O)C(OC)C(c1ccc(O)c(O)c1)O2` (stereo not drawn) cannot be ordered by TGI: greater than 100 µM for the first, greater than 100 µM for the second.

`O=C(NCCNc1nccc(-c2c(-c3cccc(O)c3)nc3sccn23)n1)c1ccccc1O` and `CNC(=O)c1ccccc1Nc1nc(Nc2ccc(N3CCOCC3)cc2OC)ncc1Cl` cannot be ordered by TGI: greater than 47.6 µM for the first, greater than 47.8 µM for the second.

Compared with `CCCCCCCC(=O)SCC/C=C/[C@@H]1CC(=O)NCc2cccc(n2)C2=N[C@@](C)(CS2)C(=O)N[C@@H](C(C)C)C(=O)N1`, `CC(C)=CCCc1c(C)ccc2c1C(=O)C(=O)C(C(C)C)=C2` is higher in TGI: 8.16 µM for the first, greater than 22 µM for the second.

`C[C@@H](CS(C)(=O)=O)Nc1ncc2cc(Oc3ccc(F)cc3F)c(=O)n(C)c2n1` and `CN(CC(=O)O)S(=O)(=O)c1ccc2ccccc2c1` cannot be ordered by TGI: greater than 25 µM for the first, greater than 100 µM for the second.

First: Cn1ccnc1C(=O)/C=C/c1ccc(CC(=O)Nc2ccc(Br)cc2)cc1
Second: O=C(N/C(=C\c1cc(Cl)ccc1Cl)c1nc2[nH]c(=S)[nH]c(=O)c2[nH]1)c1ccccc1
The TGI of the first is lower: 4.51 µM for the first, greater than 76.1 µM for the second.

`COC(=O)[C@@H](C)C[C@H](Cc1ccc(F)cc1)NC(=O)c1csc([C@@H](C[C@H](C(C)C)N(C)C(=O)[C@@H](NC(=O)[C@H]2CCCCN2C)C(C)C)OC(C)=O)n1` and `COC(=O)[C@@]12C3=NO[C@]1(C(=O)OC)C(O[Si](C)(C)C(C)(C)C)[C@H]1OC(C)(C)O[C@H]1[C@@H]2C(OCc1ccccc1)CC3` (stereo partly drawn) cannot be ordered by TGI: greater than 16.7 µM for the first, greater than 100 µM for the second.

`N#CC(C#N)=c1ccc(=C2NCC3CCCN23)cc1` (stereo not drawn) and `COc1ccc2c(c1)C1(C=N2)CCN(C(C)=O)CC1` cannot be ordered by TGI: greater than 100 µM for the first, greater than 100 µM for the second.

`CCOC(=O)COc1cccc2c1C(=O)CCO2` and `CCOC(=O)C1=C(C)CC2C(=O)OC(=O)C2C1(C)C` (stereo not drawn) cannot be ordered by TGI: greater than 100 µM for the first, greater than 100 µM for the second.

`O[C@H]1[C@H]2c3cc4c(cc3CN3CCC(=C[C@@H]1O)[C@H]23)OCO4` and `O=C1NC2(CCCCC2)C2CCCCC(O)C12` (stereo not drawn) cannot be ordered by TGI: greater than 26.7 µM for the first, greater than 100 µM for the second.

For `O=[S@@]1Nc2ccc(Br)cc2S1`, the TGI was greater than 100 µM.

For `COC(=O)[C@@H](C)C[C@H](Cc1ccc(F)cc1)NC(=O)c1csc([C@@H](C[C@H](C(C)C)N(C)C(=O)[C@@H](NC(=O)[C@H]2CCCCN2C)C(C)C)OC(C)=O)n1`, the GI50 was 0.00151 µM and 0.00914 µM.
